Laboratory results taken from patent US5364966A, “Amide derivatives, their production processes and their compositions for the control of insect pests” (Sumitomo Chemical Company, Limited, priority 1991, dated 1994).

How the values were obtained:
[1] = tested on: brown rice planthopper (Nilaparvata lugens); test: Metamorphosis inhibitory activity against brown rice planthopper nymphs; format: in vivo; settings: sprayed rice plants, 3rd instar nymphs, after 10 days
Description: Metamorphosis inhibitory activity against brown rice planthopper nymphs
An emulsifiable concentrate prepared according to Formulation Example 1 was diluted with water to make a predetermined concentration. The dilution was sprayed onto rice plants cultivated in polyethylene cups at a rate of 20 ml/2 pots on a turning table. After air-drying, the plants were infested with about ten 3rd instar nymphs of brown rice planthopper (Nilaparvata lugens). After 10 days, the number of normal adults was counted to obtain an emergence inhibitory rate.

[2] = tested on: cotton aphids (Aphis gossypil); test: Reproduction inhibitory activity against cotton aphids; format: in vivo; settings: 10 ppm; sprayed potted cotton plants infested with 1st instar nymphs, one week after spraying
Description: Reproduction inhibitory activity against cotton aphids
An emulsifiable concentrate prepared according to Formulation Example 1 was diluted with water to make a predetermined concentration. The dilution was sprayed onto potted cotton plants (in a stage of 8-9 days after sowing) infested with 1st instar nymphs of cotton aphids (Aphis gossypil) at a rate of 30 ml/2 pots on a turning table. Before spraying and one week after spraying, the humber of nymphs and aduts was counted, and a reproduction inhibitory index was expressed by the following equation: [formula] wherein the judgement of activity is based on the following standard: A: less than 1 (excellent effect)

[3] = Nilaparvata lugens, 240 h, 0.05 ppm, read-out: Inhibitory rate (emergence inhibitory rate)
[4] = Nilaparvata lugens, 240 h, 5 ppm, read-out: Inhibitory rate (emergence inhibitory rate)

Row | SMILES | inhibition at 0.05 ppm [1, 3] [%] | inhibition at 5 ppm [1, 4] [%] | also measured
1 | O=C(NCCOc1ccc(Oc2cccc(Cl)c2)cc1Cl)C1CC1 [compound 6, N-{2-[2-Chloro-4-(3-chlorophenoxy)phenoxy]ethyl}-cyclopropane carboxyamide] | 100 | 100 | –
2 | CCC(C)Oc1ccc(OCCNC(=O)C2CC2)c(Cl)c1 (stereo not drawn) [Compound No. 14, N-{2-[2-Chloro-4-(1-methylpropoxy)phenoxy]ethyl}-cyclopropane carboxyamide] | 100 | 100 | –
3 | CC(C)COCc1ccc(OCCNC(=O)C2CC2)c(Cl)c1 [Compound No. 10, N-{2-[2-Chloro-4-(2-methylpropoxymethyl)phenoxy]ethyl}-cyclopropane carboxyamide] | 100 | 100 | –
4 | O=C(NCCOc1cc(Oc2ccccc2)ccc1Cl)C1CC1 [compound 8, N-[2-(2-Chloro-5-phenoxyphenoxy)ethyl]-cyclopropane carboxyamide] | 100 | 100 | –
5 | O=C(NCCOc1ccc(Oc2ccccc2)cc1)C1CC1 [A, reference compound] | – | 0 | –
6 | S=C(NCCOc1ccc(Oc2cccc(Cl)c2)cc1Cl)C1CC1 [compound 16, N-{2-[2-Chloro-4-(3-chlorophenoxy)phenoxy]ethyl}-cyclopropane thiocarboxyamide] | – | – | inhibition at 0.5 ppm ([1]; Nilaparvata lugens, 240 h, 0.5 ppm, read-out: Inhibitory rate (emergence inhibitory rate)): 100%
7 | O=C(NCCOc1ccc(Cc2ccccc2)cc1Cl)C1CC1 [compound 13, N-[2-(4-Benzyl-2-chlorophenoxy)ethyl]-cyclopropane carboxyamide] | 100 | 100 | –
8 | CCC(C)Oc1ccc(OCCNC(=S)C2CC2)c(Cl)c1 (stereo not drawn) [compound 11, N-{2-[2-Chloro-4-(1-methylpropoxy)phenoxy]ethyl}-cyclopropane thiocarboxyamide] | – | – | Inhibitory rate (emergence inhibitory rate) ([1]; 0.05 ppm): 100%; Inhibitory rate (emergence inhibitory rate) ([1]; 5 ppm): 100%
9 | CCC(CC)Cc1ccc(OCCNC(=O)C2CC2)c(Cl)c1 [compound 12, N-{2-[2-Chloro-4-(2-ethylbutyl)phenoxy]ethyl}-cyclopropane carboxyamide] | 100 | 100 | –
10 | O=C(NCCOc1ccc(Oc2cccc(F)c2)cc1Cl)C1CC1 [compound 5, N-{2-[2-Chloro-4-(3-fluorophenoxy)phenoxy]ethyl}-cyclopropane carboxyamide] | 100 | 100 | –
11 | O=C(NCCOc1ccc(Oc2cc(F)cc(F)c2)cc1Cl)C1CC1 [Compound No. 1, N-{2-[2-Chloro-4-(3,5-difluorophenoxy)phenoxy]ethyl}-cyclopropane carboxyamide] | 100 | 100 | reproduction inhibitory index [2]: A (less than 1 (excellent effect))
12 | O=C(NCCOc1ccc(Oc2ccc(F)cc2F)cc1Cl)C1CC1 [compound 7, N-{2-[2-Chloro-4-(2,4-difluorophenoxy)phenoxy]ethyl}-cyclopropane carboxyamide] | – | 100 | –
13 | Fc1cc(F)cc(Oc2ccc(OCCNC(=S)C3CC3)c(Cl)c2)c1 [compound 4, N-{2-[2-Chloro-4-(3,5-difluorophenoxy)phenoxy]ethyl}-cyclopropane thiocarboxyamide] | 100 | 100 | –
14 | O=C(NCCOc1ccc(Oc2ccccc2)cc1Cl)C1CC1 [compound 15, N-[2-(2-Chloro-4-phenoxyphenoxy)ethyl]-cyclopropane carboxyamide] | – | 100 | –
15 | S=C(NCCOc1ccc(Cc2ccccc2)cc1Cl)C1CC1 [Compound No. 3, N-[2-(4-Benzyl-2-chlorophenoxy)ethyl]-cyclopropane thiocarboxyamide] | 100 | 100 | –
